{
  "source": "patent US20110146671A1",
  "about": "“PHARMACEUTICAL COMPOSITIONS AND METHODS OF DELIVERING THE SAME” (priority 2006, published 2011)",
  "origin": "cited, not measured here",
  "system": "patients with perennial allergic rhinitis",
  "details": "1% solution in normal saline, nasal wash every 48 hours for 4 weeks, versus placebo wash (normal saline only)",
  "note": "Where a name gives a salt, the structure may show the parent alone.",
  "data": [
    {"smiles": "CN[C@@H](C)[C@H](O)c1ccccc1", "note": "[ephedrine hydrochloride]", "values": [
      {"measurement": "peak nasal inspiratory flow rates", "value": "significant improvement"},
      {"measurement": "symptom scores", "value": "significant improvement"}
    ]}
  ]
}
